Results on 2 molecules are retold here after patent publication US20250282715A1, “SOLID STATE FORMS OF MIRDAMETINIB AND PROCESS FOR PREPARATION THEREOF” (Assia Chemical Industries Ltd., priority 2022, published 2025).

Common to all, as to type: physicochemical
Data set [1] in a line: Thermal stability (oven heating, XRPD analysis). The note with it: heated in an oven at 100° C. for 30 minutes. The procedure: (§1) A sample, after being powdered in a mortar and pestle, is applied directly on a silicon plate holder. The X-ray powder diffraction pattern was measured with Philips X'Pert PRO X-ray powder diffractometer, equipped with Cu irradiation source=1.54184 Å (Ångström), X'Celerator (2.022° 20) detector. Scanning parameters: angle range: 3-40 deg., step size 0.0167, time per step 37 s, continuous scan.
Samples of Mirdametinib oxalic acid co-crystal Form A (100 mg) and Form IV were heated in an oven at 100° C. for 30 minutes.

Data set [2] can be described thus: Stability to compression (2 tons, XRPD analysis). The settings on record: pressure of 2 tons for 2 minutes, hydraulic press. The protocol:
as §1
A sample of Mirdametinib oxalic acid co-crystal Form A was subjected to a pressure of 2 tons for 2 minutes (Atlas® Autopress hydraulic press, set to 2 tons).

Data set [3] can be described thus: Hygroscopicity (water absorption at up to 90% RH). The note with it: about 25° C.

`O=C(NOC[C@H](O)CO)c1ccc(F)c(F)c1Nc1ccc(I)cc1F` [Mirdametinib form IV, N-[(2R)-2,3-dihydroxypropoxyl]-3,4-difluoro-2-[(2-fluoro-4-iodophenyl)amino]benzamide, reference compound]: the XRPD after heating result in data set [1] was “form IV + form I”.

On to `O=C(NOC[C@H](O)CO)c1ccc(F)c(F)c1Nc1ccc(I)cc1F.O=C(O)C(=O)O`, for which the “Stability to compression: XRPD analysis after mechanical stress” value in data set [2] was “resistant to amorphization”. For the same molecule, the “Hygroscopicity / water absorption” value in data set [3] is “little or no water absorption”. Besides, the XRPD after heating result is “Form A” in data set [1] and “no conversion to other polymorph forms” in data set [1] (listed as Mirdametinib oxalic acid co-crystal Form A).
